ChEMBL document CHEMBL1130505, “2-Aryloxycarbonylthiophene-3-sulfonamides: Highly potent and etA selective endothelin receptor antagonists” (Bioorg Med Chem Lett, 1997)

Key:
[1] = molecular target: T1, Endothelin receptor type B (Homo sapiens, UniProt P24530); experiment: In vitro binding affinity in a radioligand binding experiment by competition with [125I]-labeled endothelin-1 for ETB receptor
T1 sequence (P24530 whole entry): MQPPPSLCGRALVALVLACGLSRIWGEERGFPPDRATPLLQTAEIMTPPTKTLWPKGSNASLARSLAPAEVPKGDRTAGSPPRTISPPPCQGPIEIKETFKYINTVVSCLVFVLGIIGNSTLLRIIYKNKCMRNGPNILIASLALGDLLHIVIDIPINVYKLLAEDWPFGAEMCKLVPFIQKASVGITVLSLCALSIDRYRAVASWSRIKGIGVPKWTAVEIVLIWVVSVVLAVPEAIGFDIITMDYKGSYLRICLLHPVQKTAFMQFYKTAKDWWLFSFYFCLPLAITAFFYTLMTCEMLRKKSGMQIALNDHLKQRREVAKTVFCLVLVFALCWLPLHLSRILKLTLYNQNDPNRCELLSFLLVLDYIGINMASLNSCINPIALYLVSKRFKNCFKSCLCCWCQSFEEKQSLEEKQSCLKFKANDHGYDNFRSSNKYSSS

[2] = molecular target: T2, Endothelin receptor type B (Homo sapiens) (UniProt P24530); experiment: Percent inhibition against ETB receptor binding at a concentration of 100 uM
T2 sequence (whole entry): T1 sequence (P24530 whole entry)

Endothelin-1 receptor = molecular target: T3, Endothelin-1 receptor (Homo sapiens, UniProt P25101); experiment: In vitro binding affinity in a radioligand binding experiment by competition with [125I]-labeled endothelin-1 for ETA receptor
T3 sequence (P25101 whole entry): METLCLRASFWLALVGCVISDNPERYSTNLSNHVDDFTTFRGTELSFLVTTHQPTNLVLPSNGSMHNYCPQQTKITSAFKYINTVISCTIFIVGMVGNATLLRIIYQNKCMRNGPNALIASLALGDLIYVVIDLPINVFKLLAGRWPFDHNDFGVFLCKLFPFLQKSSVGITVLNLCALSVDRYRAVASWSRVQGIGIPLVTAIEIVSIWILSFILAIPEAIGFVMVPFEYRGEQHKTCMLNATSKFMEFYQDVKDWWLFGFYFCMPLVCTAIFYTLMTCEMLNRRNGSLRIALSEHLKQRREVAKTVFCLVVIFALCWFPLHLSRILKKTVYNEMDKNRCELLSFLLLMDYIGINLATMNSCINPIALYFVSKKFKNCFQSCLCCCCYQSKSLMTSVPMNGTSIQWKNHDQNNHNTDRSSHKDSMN

IC50 [1] [µM]	inhibition [2] [%]	IC50 (Endothelin-1 receptor) [µM]	SMILES
> 100	< 50	–	Cc1ccccc1OC(=O)c1sccc1S(=O)(=O)Nc1onc(C)c1Br
> 100	< 50	0.27	Cc1ccc(OC(=O)c2sccc2S(=O)(=O)Nc2onc(C)c2C)c(C)c1
> 100	< 50	0.74	COC(=O)c1sccc1S(=O)(=O)Nc1onc(C)c1Br
> 100	< 50	3.47	COC(=O)c1sccc1S(=O)(=O)Nc1onc(C)c1C
> 100	< 50	6.06	Cc1noc(NS(=O)(=O)c2ccsc2C(=O)O)c1C
5.74	–	0.0089	Cc1noc(NS(=O)(=O)c2ccsc2C(=O)Oc2ccc3c(c2)OCO3)c1Br
48.7	–	6.14	Cc1noc(NS(=O)(=O)c2ccsc2C(=O)Oc2ccc3c(c2)OCO3)c1C
> 100	< 50	–	Cc1noc(NS(=O)(=O)c2ccsc2C(=O)Oc2ccccc2)c1Br
> 100	< 50	–	Cc1noc(NS(=O)(=O)c2ccsc2C(=O)Oc2ccccc2)c1Cl
> 100	< 50	2.52	Cc1ccc(OC(=O)c2sccc2S(=O)(=O)Nc2onc(C)c2C)cc1
> 100	< 50	1.09	COC(=O)c1sccc1S(=O)(=O)Nc1onc(C)c1Cl
> 100	< 50	1.06	Cc1noc(NS(=O)(=O)c2ccsc2C(=O)O)c1Cl
> 100	< 50	10.2	Cc1noc(NS(=O)(=O)c2ccsc2C(=O)O)c1Br
> 100	< 50	0.55	Cc1noc(NS(=O)(=O)c2ccsc2C(=O)Nc2ccccc2)c1C
> 100	< 50	4.12	Cc1noc(NS(=O)(=O)c2ccsc2C(=O)Oc2ccccc2)c1C
> 100	< 50	–	Cc1cccc(OC(=O)c2sccc2S(=O)(=O)Nc2onc(C)c2Br)c1
> 100	< 50	–	Cc1ccc(OC(=O)c2sccc2S(=O)(=O)Nc2onc(C)c2Cl)cc1
7.94	–	0.0083	Cc1noc(NS(=O)(=O)c2ccsc2C(=O)Oc2ccc3c(c2)OCO3)c1Cl
> 100	< 50	0.148	Cc1noc(NS(=O)(=O)c2ccsc2C(=O)Nc2ccccc2)c1Cl
9.21	–	0.0093	Cc1ccc(OC(=O)c2sccc2S(=O)(=O)Nc2onc(C)c2Br)cc1
